Results on 42 compounds are retold here after patent US8119692B2 (priority 2007, dated 2012).

The assay deals with Lethal factor protease (Bacillus anthracis, UniProt P15917). The assay can be described thus: biochemical. As to conditions: LF (FRET) Ki^app.
Lethal factor protease, sequence (P15917 34-809 limits assumed): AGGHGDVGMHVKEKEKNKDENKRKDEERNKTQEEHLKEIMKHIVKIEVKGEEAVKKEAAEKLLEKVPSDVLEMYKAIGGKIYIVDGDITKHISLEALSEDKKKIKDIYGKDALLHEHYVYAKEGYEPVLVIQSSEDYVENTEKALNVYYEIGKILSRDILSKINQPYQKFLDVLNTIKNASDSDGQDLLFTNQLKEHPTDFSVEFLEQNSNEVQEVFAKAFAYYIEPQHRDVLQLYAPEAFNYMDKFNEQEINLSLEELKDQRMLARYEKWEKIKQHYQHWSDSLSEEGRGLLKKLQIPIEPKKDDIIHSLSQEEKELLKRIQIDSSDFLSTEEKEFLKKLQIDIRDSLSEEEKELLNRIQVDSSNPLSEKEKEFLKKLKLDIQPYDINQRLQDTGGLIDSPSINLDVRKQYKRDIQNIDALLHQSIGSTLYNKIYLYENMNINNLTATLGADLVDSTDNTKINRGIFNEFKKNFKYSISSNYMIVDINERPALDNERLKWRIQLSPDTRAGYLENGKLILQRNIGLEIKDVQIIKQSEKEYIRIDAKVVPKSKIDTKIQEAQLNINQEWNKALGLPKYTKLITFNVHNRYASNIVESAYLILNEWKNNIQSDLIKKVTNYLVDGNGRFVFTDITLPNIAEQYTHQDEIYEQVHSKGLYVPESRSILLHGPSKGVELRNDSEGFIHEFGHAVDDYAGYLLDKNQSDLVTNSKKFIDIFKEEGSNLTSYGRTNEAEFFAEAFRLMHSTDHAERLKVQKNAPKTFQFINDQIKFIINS

Turning to `CO[C@H](CCC(=O)NO)c1ccc(F)c(C)c1` [Compound 167223, (R)-4-(4-fluoro-3-methylphenyl)-N-hydroxy-4-methoxybutanamide], the Ki turned out to be 11900 nM.

`CO[C@H](C[C@H](CCCCNCCCc1ccc(F)cc1)C(=O)NO)c1ccc(F)cc1` [Compound 168222, (S)-2-((R)-2-(4-fluorophenyl)-2-methoxyethyl)-6-(3-(4-fluorophenyl)propylamino)-N-hydroxyhexanamide] displayed a Ki of 170 nM.

Compound `C=CC[C@@H](C[C@@H](OC)c1ccc(F)cc1)C(=O)NO` [Compound 167434, (2S)-2-((2R)-2-(4-fluorophenyl)-2-methoxyethyl)-N-hydroxypent-4-enamide] came in with a Ki of 1160 nM.

Compound `CO[C@H](C[C@H](CCN1CCN(CCc2ccccc2)CC1)C(=O)NO)c1ccc(F)cc1` [Compound 167958, (2S,4R)-4-(4-fluorophenyl)-N-hydroxy-4-methoxy-2-(2-(4-phenethylpiperazin-1-yl)ethyl)butanamide] showed a Ki of 2400 nM.

Take `COC(CCC(=O)NO)c1ccc(Cl)cc1` (stereo not drawn) [Compound 167460, 4-(4-chlorophenyl)-N-hydroxy-4-methoxybutanamide]: the Ki was 52300 nM.

Turning to `CO[C@H](C[C@H](CCN1CCN(CC2CCCCC2)CC1)C(=O)NO)c1ccc(F)cc1` [Compound 167961, (2S,4R)-2-(2-(4-(cyclohexylmethyl)piperazin-1-yl)ethyl)-4-(4-fluorophenyl)-N-hydroxy-4-methoxybutanamide], the Ki came out at 1800 nM.

On to `CO[C@H](C[C@H](CCN(C)CCOc1ccccc1)C(=O)NO)c1ccc(F)cc1` [Compound 167890, (2S,4R)-4-(4-fluorophenyl)-N-hydroxy-4-methoxy-2-(2-(methyl(2-phenoxyethyl)amino)ethyl)butanamide], for which the Ki is 1600 nM.

For the compound `COC(CCC(=O)NO)c1ccccc1F` (stereo not drawn) [Compound 167564, 4-(2-fluorophenyl)-N-hydroxy-4-methoxybutanamide], the Ki worked out at 52400 nM.

For `CO[C@H](C[C@H](CCN1CCCCC1)C(=O)NO)c1ccc(F)cc1` [Compound 167889, (2S,4R)-4-(4-fluorophenyl)-N-hydroxy-4-methoxy-2-(2-(piperidin-1-yl)ethyl)butanamide], the Ki was 1500 nM.

Turning to `CO[C@H](C[C@H](CCN1CCCC(CO)C1)C(=O)NO)c1ccc(F)cc1` (stereo partly drawn) [Compound 167885, (2S,4R)-4-(4-fluorophenyl)-N-hydroxy-2-(2-(3-(hydroxymethyl)piperidin-1-yl)ethyl)-4-methoxybutanamide], the Ki came to 760 nM.

For the compound `CO[C@H](C[C@H](CCN1CCCCCC1)C(=O)NO)c1ccc(F)cc1` [Compound 167911, (2S,4R)-2-(2-(azepan-1-yl)ethyl)-4-(4-fluorophenyl)-N-hydroxy-4-methoxybutanamide], the Ki was found to be 69500 nM.

`CCCCN(C)CC[C@@H](C[C@@H](OC)c1ccc(F)cc1)C(=O)NO` [Compound 167828, (2S,4R)-2-(2-(butyl(methyl)amino)ethyl)-4-(4-fluorophenyl)-N-hydroxy-4-methoxybutanamide] came in with a Ki of 1100 nM.

Consider `COC(CCC(=O)NO)c1cccc(F)c1` (stereo not drawn) [Compound 167456, 4-(3-fluorophenyl)-N-hydroxy-4-methoxybutanamide], for which the Ki turned out to be 51600 nM.

Take `CO[C@H](C[C@H](CCCCNCc1cccc(-c2ccc(F)cc2)c1)C(=O)NO)c1ccc(F)cc1` [Compound 168230, (S)-6-((4′-fluorobiphenyl-3-yl)methylamino)-2-((R)-2-(4-fluorophenyl)-2-methoxyethyl)-N-hydroxyhexanamide]: the Ki was found to be 450 nM.

The compound `CO[C@H](C[C@H](CCCCNCc1ccc(Oc2ccccc2)cc1)C(=O)NO)c1ccc(F)cc1` [Compound 168224, (S)-2-((R)-2-(4-fluorophenyl)-2-methoxyethyl)-N-hydroxy-6-(4-phenoxybenzylamino)hexanamide] yielded a Ki of 230 nM.

The compound `CO[C@H](C[C@H](CCN(C)CCCc1ccccc1)C(=O)NO)c1ccc(F)cc1` [Compound 167953, (2S,4R)-4-(4-fluorophenyl)-N-hydroxy-4-methoxy-2-(2-(methyl(3-phenylpropyl)amino)ethyl)butanamide] gave a Ki of 230 nM.

For the compound `CO[C@H](C[C@H](CCN1CCC[C@H](CN2CCCCC2)C1)C(=O)NO)c1ccc(F)cc1` [Compound 168044, (2S,4R)-4-(4-fluorophenyl)-N-hydroxy-4-methoxy-2-(2-((R)-3-(piperidin-1-ylmethyl)piperidin-1-yl)ethyl)butanamide], the Ki is 1920 nM.

As for `CO[C@H](C[C@H](CCN1CCC[C@@H](CN2CCCCC2)C1)C(=O)NO)c1ccc(F)cc1` [Compound 168045, (2S,4R)-4-(4-fluorophenyl)-N-hydroxy-4-methoxy-2-(2-((S)-3-(piperidin-1-ylmethyl)piperidin-1-yl)ethyl)butanamide], the Ki was found to be 430 nM.

With `CCC[C@@H](C[C@@H](OC)c1ccc(F)c(C)c1)C(=O)NO` [Compound 167675, (2S)-2-((2R)-2-(4-fluoro-3-methylphenyl)-2-methoxyethyl)-N-hydroxypentanamide], the Ki amounted to 2600 nM.

In turn, `CCOC(CCC(=O)NO)c1ccc(F)cc1` (racemic) [Compound 167173, 4-ethoxy-4-(4-fluorophenyl)-N-hydroxybutanamide] yielded a Ki of 171000 nM.

`CO[C@H](C[C@H](CCN(C)CCO)C(=O)NO)c1ccc(F)cc1` [Compound 167922] gave a Ki of 1490 nM.

With `CO[C@H](C[C@H](CCN(C)c1cccc(Br)c1)C(=O)NO)c1ccc(F)cc1` [Compound 168000, (2S,4R)-2-(2-((3-bromophenyl)(methyl)amino)ethyl)-4-(4-fluorophenyl)-N-hydroxy-4-methoxybutanamide], the Ki came to 2800 nM.

`O=C(CC[C@@H](O)c1ccc(F)cc1)NO` [Compound 167206, (R)-4-(4-fluorophenyl)-N,4-dihydroxybutanamide]: the Ki is 66100 nM.

The compound `COC(CC(Cc1ccccc1)C(=O)NO)c1ccc(F)cc1` (stereo not drawn) [Compound 167286, 2-Benzyl-4-(4-fluorophenyl)-N-hydroxy-4-methoxy-butyramide] showed a Ki of 168000 nM.

As to `CO[C@H](C[C@H](CCN1CCNCC1)C(=O)NO)c1ccc(F)cc1` [Compound 167955, (2S,4R)-4-(4-fluorophenyl)-N-hydroxy-4-methoxy-2-(2-(piperazin-1-yl)ethyl)butanamide], the Ki was determined as 830 nM.

`CO[C@H](C[C@H](CCCCN(C)Cc1ccc(F)cc1)C(=O)NO)c1ccc(F)cc1` [Compound 168138] came in with a Ki of 390 nM.

Take `CO[C@H](C[C@@H](CCCc1ccccc1)C(=O)NO)c1ccc(F)cc1` [Compound 167395, (2R)-2-((2R)-2-(4-fluorophenyl)-2-methoxyethyl)-N-hydroxy-5-phenylpentanamide]: the Ki worked out at 78600 nM.

As to `COC(CCC(=O)NO)c1ccc(F)cc1` (stereo not drawn) [Compound 167157, 4-(4-fluorophenyl)-N-hydroxy-4-methoxybutanamide], the Ki came to 11700 nM.

Take `CSC(CCC(=O)NO)c1ccc(F)cc1` (racemic) [Compound 167366, 4-(4-Fluoro-phenyl)-N-hydroxy-4-methylsulfanyl-butyramide]: the Ki stood at 10900 nM.

In turn, `CO[C@H](C[C@H](CCN1CCN(Cc2ccccc2)CC1)C(=O)NO)c1ccc(F)cc1` [Compound 167962, (2S,4R)-2-(2-(4-benzylpiperazin-1-yl)ethyl)-4-(4-fluorophenyl)-N-hydroxy-4-methoxybutanamide] returned a Ki of 1900 nM.

The compound `CO[C@H](C[C@H](CCN(C)CCN(C)CCCc1ccccc1)C(=O)NO)c1ccc(F)cc1` [Compound 168082, (2S,4R)-4-(4-fluorophenyl)-N-hydroxy-4-methoxy-2-(2-(methyl(2-(methyl(3-phenylpropyl)amino)ethyl)amino)ethyl)butanamide] displayed a Ki of 820 nM.

On to `CCCC[C@@H](C[C@H](OC)c1ccc(F)cc1)C(=O)NO` [Compound 167390, (25)-2-((2S)-2-(4-fluorophenyl)-2-methoxyethyl)-N-hydroxyhexanamide], for which the Ki stood at 224000 nM.

Regarding `CO[C@H](C[C@H](CCCCNc1ccc(F)cc1)C(=O)NO)c1ccc(F)cc1` [Compound 168229], the Ki was 2800 nM.

Consider `CO[C@H](C[C@H](CCN1CCC(F)(F)CC1)C(=O)NO)c1ccc(F)cc1` [Compound 167884, (2S,4R)-2-(2-(4,4-difluoropiperidin-1-yl)ethyl)-4-(4-fluorophenyl)-N-hydroxy-4-methoxybutanamide], for which the Ki came to 2200 nM.

As for `CO[C@H](C[C@H](CCN(C)Cc1ccc(F)cc1)C(=O)NO)c1ccc(F)cc1` [Compound 167795, (2S,4R)-2-(2-((4-fluorobenzyl)(methyl)amino)ethyl)-4-(4-fluorophenyl)-N-hydroxy-4-methoxybutanamide], the Ki was 2100 nM.

For `CO[C@@H](C[C@H](CCCc1ccccc1)C(=O)NO)c1ccc(F)cc1` [Compound 167408], the Ki was more than 300000 nM.

On to `CO[C@H](C[C@H](CCN1CCCC(C(=O)O)C1)C(=O)NO)c1ccc(F)cc1` (stereo partly drawn) [Compound 167924, 1-((3S,5R)-5-(4-fluorophenyl)-3-(hydroxycarbamoyl)-5-methoxypentyl)piperidine-3-carboxylic acid], for which the Ki came to 9000 nM.

Compound `COC(CC(Cc1ccccc1)C(=O)NO)c1ccc(F)cc1` (stereo not drawn) [Compound 167285] registered a Ki of more than 300000 nM.

The compound `CO[C@H](CCC(=O)NO)c1ccc(F)cc1` [Compound 167204, (R)-4-(4-fluorophenyl)-N-hydroxy-4-methoxybutanamide] had a Ki of 7900 nM.

`CO[C@H](C[C@H](CCN(C)Cc1ccc(-c2ccc(F)c(C)c2)cc1)C(=O)NO)c1ccc(F)cc1` [Compound 168037, (2S,4R)-2-(2-(((4′-fluoro-3′-methylbiphenyl-4-yl)methyl)(methyl)amino)ethyl)-4-(4-fluorophenyl)-N-hydroxy-4-methoxybutanamide]: the Ki stood at 680 nM.

`CO[C@H](C[C@H](C/C=C/C(c1ccccc1)c1ccccc1)C(=O)NO)c1ccc(F)cc1` [Compound 167371, (2S,4E)-2-((2R)-2-(4-fluorophenyl)-2-methoxyethyl)-N-hydroxy-6,6-diphenylhex-4-enamide] registered a Ki of 14000 nM.

As to `CO[C@H](C[C@H](Cc1ccccc1)C(=O)NO)c1ccc(F)cc1` [Compound 167298], the Ki is 89500 nM.
